# According to patent US10405547B2, “Substituted cyclic amides as herbicides” (FMC Corporation, priority 2015, dated 2019):
# How the values were obtained:
# Assay type in all cases: in vivo
# [1] = test system: barnyardgrass (Echinochloa crus-galli); experiment: Test A preemergence, barnyardgrass; conditions: 0 to 100 scale (0 no effect, 100 complete control)
# Outline: (§1)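 Greenhouse pot test in loam/sand soil. Pre: directed soil spray after seeding. Post: 1–2-leaf plants, 2–10 cm. Formulation: non-phytotoxic solvent + surfactant. Visual rating vs untreated controls at ~10 d, 0 (no effect) to 100 (complete control).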
# kochia (Kochia scoparia) [2] = experiment: Test A preemergence, kochia; conditions: 0 to 100 scale (0 no effect, 100 complete control)
# Outline: as §1
# [3] = test system: ragweed (common ragweed, Ambrosia elatior); experiment: Test A preemergence, ragweed; conditions: 0 to 100 scale (0 no effect, 100 complete control)
# Outline: as §1
# [4] = test system: ryegrass, Italian (Lolium multiflorum); experiment: Test A preemergence, Italian ryegrass; conditions: 0 to 100 scale (0 no effect, 100 complete control)
# Outline: as §1
# [5] = test system: foxtail, giant (Setaria faberii); experiment: Test A preemergence, giant foxtail; conditions: 0 to 100 scale (0 no effect, 100 complete control)
# Outline: as §1
# [6] = test system: pigweed (Amaranthus retroflexus); experiment: Test A preemergence, pigweed; conditions: 0 to 100 scale (0 no effect, 100 complete control)
# Outline: as §1
# [7] = test system: barnyardgrass (Echinochloa crus-galli); experiment: Test A postemergence, barnyardgrass; conditions: visual injury, 0 to 100 scale (0 no effect, 100 complete control), approximately 10 days
# Outline: as §1
# kochia (Kochia scoparia) [8] = experiment: Test A postemergence, kochia; conditions: visual injury, 0 to 100 scale (0 no effect, 100 complete control), approximately 10 days
# Outline: as §1
# [9] = test system: ragweed (common ragweed, Ambrosia elatior); experiment: Test A postemergence, ragweed; conditions: visual injury, 0 to 100 scale (0 no effect, 100 complete control), approximately 10 days
# Outline: as §1
# [10] = test system: ryegrass, Italian (Lolium multiflorum); experiment: Test A postemergence, Italian ryegrass; conditions: visual injury, 0 to 100 scale (0 no effect, 100 complete control), approximately 10 days
# Outline: as §1
# [11] = test system: foxtail, giant (Setaria faberii); experiment: Test A postemergence, giant foxtail; conditions: visual injury, 0 to 100 scale (0 no effect, 100 complete control), approximately 10 days
# Outline: as §1
# [12] = test system: pigweed (Amaranthus retroflexus); experiment: Test A postemergence, pigweed; conditions: visual injury, 0 to 100 scale (0 no effect, 100 complete control), approximately 10 days
# Outline: as §1
# [13] = test system: blackgrass (Alopecurus myosuroides); experiment: Test A postemergence, blackgrass; conditions: visual injury, 0 to 100 scale (0 no effect, 100 complete control), approximately 10 days
# Outline: as §1
# [14] = test system: galium (catchweed bedstraw, Galium aparine); experiment: Test A postemergence, galium; conditions: visual injury, 0 to 100 scale (0 no effect, 100 complete control), approximately 10 days
# Outline: as §1
# [15] = test system: wheat (Triticum aestivum); experiment: Test A postemergence, wheat; conditions: visual injury, 0 to 100 scale (0 no effect, 100 complete control), approximately 10 days
# Outline: as §1
# corn (Zea mays) = experiment: Test A postemergence, corn; conditions: visual injury, 0 to 100 scale (0 no effect, 100 complete control), approximately 10 days
# Outline: as §1
# rice (Oryza sativa) = experiment: Test B flooded paddy test, rice; conditions: applied to paddy water, visual rating after 13 to 15 days, scale 0 (no effect) to 100 (complete control)
# Outline: (§2)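 Ratings were visual and made relative to untreated controls after 13 to 15 greenhouse days.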
# [16] = test system: sedge, umbrella (small-flower umbrella sedge, Cyperus difformis); experiment: Test B flooded paddy test, umbrella sedge; conditions: applied to paddy water, visual rating after 13 to 15 days, scale 0 (no effect) to 100 (complete control)
# Outline: as §2
# [17] = test system: ducksalad (Heteranthera limosa); experiment: Test B flooded paddy test, ducksalad; conditions: applied to paddy water, visual rating after 13 to 15 days, scale 0 (no effect) to 100 (complete control)
# Outline: as §2
# [18] = test system: barnyardgrass (Echinochloa crus-galli); experiment: Test B flooded paddy test, barnyardgrass; conditions: applied to paddy water, visual rating after 13 to 15 days, scale 0 (no effect) to 100 (complete control)
# Outline: as §2
Structure (SMILES),"Plant response rating, Barnyardgrass ([1]; 125 g ai/ha)","Plant response rating, Barnyardgrass ([1]; 500 g ai/ha)","Plant response rating, Kochia (kochia (Kochia scoparia) [2]; 125 g ai/ha)","Plant response rating, Kochia (kochia (Kochia scoparia) [2]; 500 g ai/ha)","Plant response rating, Ragweed ([3]; 125 g ai/ha)","Plant response rating, Ragweed ([3]; 500 g ai/ha)","Plant response rating, Ryegrass, Italian ([4]; 125 g ai/ha)","Plant response rating, Ryegrass, Italian ([4]; 500 g ai/ha)","Plant response rating, Foxtail, Giant ([5]; 125 g ai/ha)","Plant response rating, Foxtail, Giant ([5]; 500 g ai/ha)","Plant response rating, Pigweed ([6]; 125 g ai/ha)","Plant response rating, Pigweed ([6]; 500 g ai/ha)","Plant response rating, Barnyardgrass ([7]; 125 g ai/ha)","Plant response rating, Barnyardgrass ([7]; 500 g ai/ha)","Plant response rating, Kochia (kochia (Kochia scoparia) [8]; 125 g ai/ha)","Plant response rating, Kochia (kochia (Kochia scoparia) [8]; 500 g ai/ha)","Plant response rating, Ragweed ([9]; 125 g ai/ha)","Plant response rating, Ragweed ([9]; 500 g ai/ha)","Plant response rating, Ryegrass, Italian ([10]; 125 g ai/ha)","Plant response rating, Ryegrass, Italian ([10]; 500 g ai/ha)",other results
"O=C1NCC(c2cccc(Cn3ccc(C(F)(F)F)n3)c2)C1C(=O)Nc1cccc(F)c1F (stereo not drawn) [Compound 25, N-(2,3-difluorophenyl)-2-oxo-4-[3-[[3-(trifluoromethyl)-1H-pyrazol-1-yl]methyl]phenyl]-3-pyrrolidinecarboxamide]",20,40,0,20,0,0,0,0,50,80,0,0,20,60,0,0,0,0,0,0,"Plant response rating, Foxtail, Giant ([11]; 125 g ai/ha): 20; Plant response rating, Foxtail, Giant ([11]; 500 g ai/ha): 60; Plant response rating, Pigweed ([12]; 125 g ai/ha): 0; Plant response rating, Pigweed ([12]; 500 g ai/ha): 0; Plant response rating, Blackgrass ([13]; 125 g ai/ha): 0; Plant response rating, Blackgrass ([13]; 500 g ai/ha): 0; Plant response rating, Galium ([14]; 125 g ai/ha): 0; Plant response rating, Galium ([14]; 500 g ai/ha): 0; Plant response rating, Wheat ([15]; 125 g ai/ha): 0; Plant response rating, Wheat ([15]; 500 g ai/ha): 0; Plant response rating, Corn (corn (Zea mays); 125 g ai/ha): 0; Plant response rating, Corn (corn (Zea mays); 500 g ai/ha): 0; Plant response rating, Rice (Flood) (rice (Oryza sativa); 500 g ai/ha): 15; Plant response rating, Sedge, Umbrella (Flood) ([16]; 500 g ai/ha): 0; Plant response rating, Ducksalad (Flood) ([17]; 500 g ai/ha): 60; Plant response rating, Barnyardgrass (Flood) ([18]; 500 g ai/ha): 0"
C[Si](C)(C)C#Cc1cccc(C2CNC(=O)C2C(=O)Nc2cccc(F)c2F)c1 (stereo not drawn) [Compound 33],60,80,0,0,0,0,0,0,60,80,0,0,0,50,0,40,0,0,0,0,"Plant response rating, Foxtail, Giant ([11]; 125 g ai/ha): 0; Plant response rating, Foxtail, Giant ([11]; 500 g ai/ha): 50; Plant response rating, Pigweed ([12]; 125 g ai/ha): 0; Plant response rating, Pigweed ([12]; 500 g ai/ha): 0; Plant response rating, Blackgrass ([13]; 125 g ai/ha): 0; Plant response rating, Blackgrass ([13]; 500 g ai/ha): 0; Plant response rating, Galium ([14]; 125 g ai/ha): 0; Plant response rating, Galium ([14]; 500 g ai/ha): 20; Plant response rating, Wheat ([15]; 125 g ai/ha): 0; Plant response rating, Wheat ([15]; 500 g ai/ha): 0; Plant response rating, Corn (corn (Zea mays); 125 g ai/ha): 0; Plant response rating, Corn (corn (Zea mays); 500 g ai/ha): 0; Plant response rating, Rice (Flood) (rice (Oryza sativa); 250 g ai/ha): 0; Plant response rating, Sedge, Umbrella (Flood) ([16]; 250 g ai/ha): 0; Plant response rating, Ducksalad (Flood) ([17]; 250 g ai/ha): 50; Plant response rating, Barnyardgrass (Flood) ([18]; 250 g ai/ha): 0"
"O=C1NCC(c2cccc(Oc3ccccn3)c2)C1C(=O)Nc1ccccc1F (stereo not drawn) [Compound 34, N-(2-Fluorophenyl)-2-oxo-4-[3-(2-pyridinyloxy)phenyl]-3-pyrrolidinecarboxamide]",20,90,0,0,0,0,0,0,70,90,0,0,30,60,0,0,0,0,0,30,"Plant response rating, Foxtail, Giant ([11]; 125 g ai/ha): 30; Plant response rating, Foxtail, Giant ([11]; 500 g ai/ha): 80; Plant response rating, Pigweed ([12]; 125 g ai/ha): 0; Plant response rating, Pigweed ([12]; 500 g ai/ha): 0; Plant response rating, Blackgrass ([13]; 125 g ai/ha): 0; Plant response rating, Blackgrass ([13]; 500 g ai/ha): 20; Plant response rating, Galium ([14]; 125 g ai/ha): 20; Plant response rating, Galium ([14]; 500 g ai/ha): 50; Plant response rating, Wheat ([15]; 125 g ai/ha): 0; Plant response rating, Wheat ([15]; 500 g ai/ha): 0; Plant response rating, Corn (corn (Zea mays); 125 g ai/ha): 0; Plant response rating, Corn (corn (Zea mays); 500 g ai/ha): 0; Plant response rating, Rice (Flood) (rice (Oryza sativa); 500 g ai/ha): 0; Plant response rating, Sedge, Umbrella (Flood) ([16]; 500 g ai/ha): 0; Plant response rating, Ducksalad (Flood) ([17]; 500 g ai/ha): 85; Plant response rating, Barnyardgrass (Flood) ([18]; 500 g ai/ha): 20"
O=C1NCC(c2cccc(OC(F)(F)C(F)OC(F)(F)F)c2)C1C(=O)Nc1ccccc1F (stereo not drawn) [Compound 40],50,90,0,90,0,20,0,0,90,90,0,0,50,40,0,0,0,0,0,0,"Plant response rating, Foxtail, Giant ([11]; 125 g ai/ha): 40; Plant response rating, Foxtail, Giant ([11]; 500 g ai/ha): 60; Plant response rating, Pigweed ([12]; 125 g ai/ha): 0; Plant response rating, Pigweed ([12]; 500 g ai/ha): 0; Plant response rating, Blackgrass ([13]; 125 g ai/ha): 0; Plant response rating, Blackgrass ([13]; 500 g ai/ha): 30; Plant response rating, Galium ([14]; 125 g ai/ha): 40; Plant response rating, Galium ([14]; 500 g ai/ha): 40; Plant response rating, Wheat ([15]; 125 g ai/ha): 0; Plant response rating, Wheat ([15]; 500 g ai/ha): 20; Plant response rating, Corn (corn (Zea mays); 125 g ai/ha): 0; Plant response rating, Corn (corn (Zea mays); 500 g ai/ha): 0; Plant response rating, Rice (Flood) (rice (Oryza sativa); 250 g ai/ha): 0; Plant response rating, Sedge, Umbrella (Flood) ([16]; 250 g ai/ha): 0; Plant response rating, Ducksalad (Flood) ([17]; 250 g ai/ha): 70; Plant response rating, Barnyardgrass (Flood) ([18]; 250 g ai/ha): 20"
CN1CC(c2cccc(OC(F)(F)C(F)OC(F)(F)F)c2)C(C(=O)Nc2ccccc2F)C1=O (stereo not drawn) [Compound 41],20,90,30,60,20,70,20,60,80,90,70,90,50,50,20,60,0,0,0,20,"Plant response rating, Foxtail, Giant ([11]; 125 g ai/ha): 50; Plant response rating, Foxtail, Giant ([11]; 500 g ai/ha): 70; Plant response rating, Pigweed ([12]; 125 g ai/ha): 40; Plant response rating, Pigweed ([12]; 500 g ai/ha): 80; Plant response rating, Blackgrass ([13]; 125 g ai/ha): 0; Plant response rating, Blackgrass ([13]; 500 g ai/ha): 30; Plant response rating, Galium ([14]; 125 g ai/ha): 40; Plant response rating, Galium ([14]; 500 g ai/ha): 60; Plant response rating, Wheat ([15]; 125 g ai/ha): 0; Plant response rating, Wheat ([15]; 500 g ai/ha): 40; Plant response rating, Corn (corn (Zea mays); 125 g ai/ha): 0; Plant response rating, Corn (corn (Zea mays); 500 g ai/ha): 40; Plant response rating, Rice (Flood) (rice (Oryza sativa); 250 g ai/ha): 20; Plant response rating, Sedge, Umbrella (Flood) ([16]; 250 g ai/ha): 0; Plant response rating, Ducksalad (Flood) ([17]; 250 g ai/ha): 100; Plant response rating, Barnyardgrass (Flood) ([18]; 250 g ai/ha): 0"
